Columns and labels:
PI3Kβ = PI3Kβ (Homo sapiens (Human), UniProt P42338); assay: Homogeneous Time Resolved Fluorescence (HTRF) lipid kinase assay; format: biochemical; conditions: HTRF format, 10 μM ATP
Description: (§1) The ability of the compounds of the present invention to inhibit the activity of four PI3K isoforms, PI3Kα, PI3Kβ, PI3Kγ, and PI3Kδ, were determined using a commercially available lipid kinase assay run in Homogeneous Time Resolved Fluorescence (HTRF) format.
(§2) Assay principle: The PIP3 product is detected by displacement of biotin-PIP3 from an energy transfer complex consisting of Europium labeled anti-GST monoclonal antibody, a GST-tagged pleckstrin homology (PH) domain, biotinylated PIP3 and Streptavidin-Allophycocyanin (APC). Excitation of Europium in the complex results in an energy transfer to the APC and a fluorescent emission at 665 nm. The PIP3 product formed by PI 3-Kinase(h) activity displaces biotin-PIP3 from the complex resulting in a loss of energy transfer and thus a decrease in signal.
(§3) This is a 3-step reaction: First, the kinase reaction with PIP2 substrate is carried out in the presence of ATP, and the reaction is quenched with stop Solution, and then finally detect by adding Detection Mixture followed by incubation.
(§4) Assay Buffer: HEPES 50 mM (pH7.0), NaN3 0.02%, BSA 0.01%, Orthovanadate 0.1 mM, 1% DMSO.
(§5) Detection buffer: HEPES 10 mM (pH7.0), BSA 0.02%, KF 0.16 M, EDTA 4 mM.
(§6) Substrate: […] PIP2 substrate (PI(4,5)P2)
(§7) ATP: 10 μM ATP under standard conditions
(§8) Control Inhibitor: PI-103
(§9) • 1. Prepare substrate in freshly prepared Reaction Buffer • 2. Deliver kinase into the substrate solution and gently mix • 3. Deliver compounds in 100% DMSO into the kinase reaction mixture by Acoustic technology (Echo550; nanolitter range), incubate for 10 min at room temp • 4. Deliver ATP into the reaction mixture to initiate the reaction • 5. Incubate for 30 min at 30° C. • 6. Quench the reaction with Stop Solution. • 7. Add Detection Mixture, and incubate for overnight. • 8. Measure HTRF: Ex=320 nm, ratio of Em=615 nm and Em=665 nm. Data Analysis:
(§10) The emission ratio is converted into μM PIP3 production based on PIP3 standard curves. The nonlinear regression to obtain the standard curve and IC50 values are performed using Graphpad Prism software.

PI3Kδ = PI3Kδ (Homo sapiens (Human), UniProt O00329); assay: as above; format: biochemical; conditions: HTRF format, 10 μM ATP
Sequence of PI3Kδ (O00329 whole entry): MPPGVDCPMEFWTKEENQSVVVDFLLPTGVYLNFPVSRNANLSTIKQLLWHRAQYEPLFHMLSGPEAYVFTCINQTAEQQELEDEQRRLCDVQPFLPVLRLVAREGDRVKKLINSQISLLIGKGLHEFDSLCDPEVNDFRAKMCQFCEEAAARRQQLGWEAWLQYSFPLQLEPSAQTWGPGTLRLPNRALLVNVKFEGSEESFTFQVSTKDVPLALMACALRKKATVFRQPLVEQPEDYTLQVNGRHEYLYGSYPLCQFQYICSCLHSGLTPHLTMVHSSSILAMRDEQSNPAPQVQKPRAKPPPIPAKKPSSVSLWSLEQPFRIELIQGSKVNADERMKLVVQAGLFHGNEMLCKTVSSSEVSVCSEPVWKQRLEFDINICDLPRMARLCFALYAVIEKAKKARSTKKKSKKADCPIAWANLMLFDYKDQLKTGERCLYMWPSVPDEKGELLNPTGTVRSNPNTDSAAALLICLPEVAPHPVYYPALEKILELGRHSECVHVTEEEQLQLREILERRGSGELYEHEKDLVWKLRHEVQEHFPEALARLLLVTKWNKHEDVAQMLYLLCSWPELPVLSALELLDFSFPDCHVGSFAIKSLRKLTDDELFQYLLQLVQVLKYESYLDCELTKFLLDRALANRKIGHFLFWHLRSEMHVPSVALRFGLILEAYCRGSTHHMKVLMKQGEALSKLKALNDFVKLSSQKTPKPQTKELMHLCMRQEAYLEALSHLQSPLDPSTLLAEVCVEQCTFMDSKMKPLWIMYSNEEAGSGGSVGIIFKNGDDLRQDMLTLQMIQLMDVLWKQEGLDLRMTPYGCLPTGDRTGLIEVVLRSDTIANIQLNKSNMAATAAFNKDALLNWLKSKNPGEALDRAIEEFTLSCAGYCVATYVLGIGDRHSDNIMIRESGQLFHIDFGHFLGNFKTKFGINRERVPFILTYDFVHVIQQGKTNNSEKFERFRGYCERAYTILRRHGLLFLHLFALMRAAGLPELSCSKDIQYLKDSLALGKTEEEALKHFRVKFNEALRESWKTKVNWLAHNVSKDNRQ
Sequence of PI3Kδ (P27986 whole entry partner): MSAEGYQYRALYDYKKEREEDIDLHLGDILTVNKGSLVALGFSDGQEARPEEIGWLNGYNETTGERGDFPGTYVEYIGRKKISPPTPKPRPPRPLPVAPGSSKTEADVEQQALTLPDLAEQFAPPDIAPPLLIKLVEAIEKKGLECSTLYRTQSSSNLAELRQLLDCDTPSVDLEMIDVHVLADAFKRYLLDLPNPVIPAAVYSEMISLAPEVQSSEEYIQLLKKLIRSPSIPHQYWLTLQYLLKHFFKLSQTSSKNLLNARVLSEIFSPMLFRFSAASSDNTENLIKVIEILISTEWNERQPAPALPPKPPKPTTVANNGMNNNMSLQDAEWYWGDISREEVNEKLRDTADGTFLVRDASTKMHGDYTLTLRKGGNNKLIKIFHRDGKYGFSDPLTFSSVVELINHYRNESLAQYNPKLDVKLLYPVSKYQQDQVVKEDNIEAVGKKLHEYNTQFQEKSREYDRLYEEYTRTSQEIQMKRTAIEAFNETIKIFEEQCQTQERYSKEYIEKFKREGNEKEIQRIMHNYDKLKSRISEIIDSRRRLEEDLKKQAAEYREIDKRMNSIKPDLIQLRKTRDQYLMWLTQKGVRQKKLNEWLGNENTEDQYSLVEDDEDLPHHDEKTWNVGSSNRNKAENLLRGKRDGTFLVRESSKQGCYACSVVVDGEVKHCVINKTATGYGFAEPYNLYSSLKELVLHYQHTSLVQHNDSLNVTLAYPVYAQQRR
Description: as §1, §2, §3, §4, §5, §6, §7, §8, §9, §10

PI3Kγ = PI3Kγ (Homo sapiens (Human), UniProt P48736); assay: as above; format: biochemical; conditions: HTRF format, 10 μM ATP
Sequence of PI3Kγ (P48736 whole entry): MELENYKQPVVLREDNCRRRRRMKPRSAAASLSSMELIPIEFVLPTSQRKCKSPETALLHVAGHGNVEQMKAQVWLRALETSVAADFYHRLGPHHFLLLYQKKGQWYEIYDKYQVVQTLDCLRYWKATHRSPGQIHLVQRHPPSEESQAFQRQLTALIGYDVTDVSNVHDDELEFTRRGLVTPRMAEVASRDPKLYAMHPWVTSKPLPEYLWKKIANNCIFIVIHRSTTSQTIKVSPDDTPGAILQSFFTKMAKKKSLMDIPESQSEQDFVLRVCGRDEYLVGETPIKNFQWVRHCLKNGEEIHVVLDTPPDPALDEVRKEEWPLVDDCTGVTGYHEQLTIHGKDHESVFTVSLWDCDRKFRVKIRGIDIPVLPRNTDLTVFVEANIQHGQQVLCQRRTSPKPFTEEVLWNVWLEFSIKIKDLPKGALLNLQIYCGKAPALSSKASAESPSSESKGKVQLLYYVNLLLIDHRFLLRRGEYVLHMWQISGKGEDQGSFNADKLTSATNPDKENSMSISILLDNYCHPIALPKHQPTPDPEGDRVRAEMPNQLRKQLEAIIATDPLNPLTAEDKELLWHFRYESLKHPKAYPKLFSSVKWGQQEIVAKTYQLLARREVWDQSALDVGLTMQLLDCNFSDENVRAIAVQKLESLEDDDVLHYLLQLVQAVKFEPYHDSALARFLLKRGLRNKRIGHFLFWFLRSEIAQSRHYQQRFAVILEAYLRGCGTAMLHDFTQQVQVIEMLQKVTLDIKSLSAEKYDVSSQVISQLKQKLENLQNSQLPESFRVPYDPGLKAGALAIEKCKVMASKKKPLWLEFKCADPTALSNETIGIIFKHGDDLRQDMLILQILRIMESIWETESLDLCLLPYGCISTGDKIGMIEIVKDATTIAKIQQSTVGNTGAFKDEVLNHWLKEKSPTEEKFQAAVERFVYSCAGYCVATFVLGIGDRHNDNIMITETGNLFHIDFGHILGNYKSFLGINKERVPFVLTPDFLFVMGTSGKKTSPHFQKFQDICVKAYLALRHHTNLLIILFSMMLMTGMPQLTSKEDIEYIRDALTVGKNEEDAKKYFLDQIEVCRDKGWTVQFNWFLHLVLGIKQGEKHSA
Description: as §1, §2, §3, §4, §5, §6, §7, §8, §9, §10

PI3Kα = PI3Kα (Homo sapiens (Human), UniProt P42336); assay: as above; format: biochemical; conditions: HTRF format, 10 μM ATP
Sequence of PI3Kα (P42336 whole entry): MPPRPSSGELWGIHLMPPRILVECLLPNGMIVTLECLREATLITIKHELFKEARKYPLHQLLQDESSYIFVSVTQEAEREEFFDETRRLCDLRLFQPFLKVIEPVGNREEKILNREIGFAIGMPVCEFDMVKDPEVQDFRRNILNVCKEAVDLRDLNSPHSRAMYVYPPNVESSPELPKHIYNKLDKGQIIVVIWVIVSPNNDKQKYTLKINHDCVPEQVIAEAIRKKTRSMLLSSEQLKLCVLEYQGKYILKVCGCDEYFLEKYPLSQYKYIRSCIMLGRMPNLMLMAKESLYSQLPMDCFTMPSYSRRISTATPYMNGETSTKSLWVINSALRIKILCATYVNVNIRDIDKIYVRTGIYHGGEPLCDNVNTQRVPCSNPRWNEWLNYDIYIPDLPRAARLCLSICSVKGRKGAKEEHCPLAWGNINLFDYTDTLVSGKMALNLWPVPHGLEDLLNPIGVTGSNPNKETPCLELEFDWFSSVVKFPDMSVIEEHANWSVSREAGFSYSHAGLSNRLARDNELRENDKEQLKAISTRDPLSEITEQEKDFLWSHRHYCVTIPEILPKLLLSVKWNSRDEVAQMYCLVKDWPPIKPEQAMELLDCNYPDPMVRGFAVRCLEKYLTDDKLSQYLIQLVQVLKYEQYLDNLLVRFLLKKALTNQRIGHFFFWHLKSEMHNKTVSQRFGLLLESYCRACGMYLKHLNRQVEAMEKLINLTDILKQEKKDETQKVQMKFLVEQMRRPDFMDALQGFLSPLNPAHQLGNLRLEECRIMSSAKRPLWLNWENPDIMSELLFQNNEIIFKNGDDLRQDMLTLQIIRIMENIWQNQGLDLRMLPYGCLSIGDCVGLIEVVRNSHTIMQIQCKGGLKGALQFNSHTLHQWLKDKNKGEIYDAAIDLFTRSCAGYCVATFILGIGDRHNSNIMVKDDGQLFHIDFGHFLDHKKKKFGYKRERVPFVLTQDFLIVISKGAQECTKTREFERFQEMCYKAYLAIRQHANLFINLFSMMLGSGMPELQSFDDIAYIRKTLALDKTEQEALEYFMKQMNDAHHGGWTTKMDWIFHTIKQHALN
Sequence of PI3Kα (P27986 whole entry partner): as the sequence (P27986 whole entry partner) above
Description: as §1, §2, §3, §4, §5, §6, §7, §8, §9, §10

PI3Kγ human (144-1102) = PI3Kγ human (144-1102) (Homo sapiens (Human), UniProt P48736); assay: Reporter displacement assay; format: binding
Description: (§11) The ability of the compounds of the present invention to inhibit the activity of four PI3K isoforms, PI3Kα, PI3Kβ, PI3Kγ, and PI3Kδ, were determined using the commercially available reporter displacement assay that is based on reporter probes that are designed to bind to the site of interest of the target protein. The proximity between reporter and protein results in the emission of an optical signal. Compounds that bind to the same site as the reporter probe displace the probe, causing signal diminution. Reporter displacement is measured over time after addition of compounds at various concentrations. The assay conditions were:
(§12) Assay plates: 384 well U bottom, PP, black, low volume (Corning, 3676)
(§13) Full probe displacement: absence of enzyme and compound
(§14) Full probe binding: absence of compound
(§15) Reaction buffer: 20 mM Mops, pH 7.01 mM DTT, 0.01% Tween 20

PI3Kβ human (1-1070) = PI3Kβ human (1-1070) (Homo sapiens (Human), UniProt P42338); assay: Reporter displacement assay; format: binding
Description: as §11, §12, §13, §14, §15

PI3Kδ human fl = PI3Kδ human fl (Homo sapiens (Human), UniProt O00329); assay: Reporter displacement assay; format: binding
Description: as §11, §12, §13, §14, §15

PI3Kα human fl = PI3Kα human fl (Homo sapiens (Human), UniProt P42336); assay: Reporter displacement assay; format: binding
Description: as §11, §12, §13, §14, §15

Sequence of PI3Kβ (P42338 whole entry, canonical isoform): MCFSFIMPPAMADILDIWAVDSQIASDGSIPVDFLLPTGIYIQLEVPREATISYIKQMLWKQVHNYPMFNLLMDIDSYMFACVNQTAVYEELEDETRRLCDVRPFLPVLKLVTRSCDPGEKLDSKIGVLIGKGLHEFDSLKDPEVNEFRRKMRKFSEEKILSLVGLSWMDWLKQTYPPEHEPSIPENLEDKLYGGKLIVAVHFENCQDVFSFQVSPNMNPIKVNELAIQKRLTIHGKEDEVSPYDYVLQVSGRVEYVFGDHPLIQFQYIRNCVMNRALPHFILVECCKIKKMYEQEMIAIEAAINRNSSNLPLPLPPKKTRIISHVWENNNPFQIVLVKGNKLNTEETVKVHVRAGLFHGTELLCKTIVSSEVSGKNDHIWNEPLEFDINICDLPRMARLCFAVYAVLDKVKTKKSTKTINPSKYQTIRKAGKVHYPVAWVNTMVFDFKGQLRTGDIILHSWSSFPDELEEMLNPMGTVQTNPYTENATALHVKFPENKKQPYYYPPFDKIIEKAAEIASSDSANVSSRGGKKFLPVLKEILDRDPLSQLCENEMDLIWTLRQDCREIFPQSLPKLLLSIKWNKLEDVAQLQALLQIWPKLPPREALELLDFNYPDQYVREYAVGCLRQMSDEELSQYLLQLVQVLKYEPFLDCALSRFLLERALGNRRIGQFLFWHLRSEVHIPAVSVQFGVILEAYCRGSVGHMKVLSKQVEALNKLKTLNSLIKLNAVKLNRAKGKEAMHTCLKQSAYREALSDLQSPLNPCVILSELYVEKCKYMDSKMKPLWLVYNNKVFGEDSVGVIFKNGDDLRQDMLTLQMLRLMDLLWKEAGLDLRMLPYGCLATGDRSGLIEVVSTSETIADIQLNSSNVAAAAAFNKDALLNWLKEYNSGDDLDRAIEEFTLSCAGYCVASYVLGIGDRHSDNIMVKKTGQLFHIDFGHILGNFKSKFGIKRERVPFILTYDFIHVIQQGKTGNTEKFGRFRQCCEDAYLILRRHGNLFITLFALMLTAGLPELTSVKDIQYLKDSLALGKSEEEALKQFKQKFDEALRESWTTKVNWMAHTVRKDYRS
Sequence of PI3Kβ (P27986 whole entry partner, canonical isoform): as the sequence (P27986 whole entry partner) above

IC50 (PI3Kβ) | IC50 (PI3Kδ) | IC50 (PI3Kγ) | IC50 (PI3Kα) | IC50 (PI3Kγ human (144-1102)) | IC50 (PI3Kβ human (1-1070)) | IC50 (PI3Kδ human fl) | IC50 (PI3Kα human fl) | SMILES
650 nM | 8 nM | 1200 nM | 3700 nM |  |  |  |  | CC[C@H](Nc1ncnc2[nH]ccc12)c1nc2cccc(F)c2c(=O)n1-c1ccccc1 [Compound 1A, (S)-2-(1-((7H-pyrrolo[2,3-d]pyrimidin-4-yl)amino)propyl)-5-fluoro-3-phenylquinazolin-4(3H)-one]
> 10000 nM | 2100 nM |  |  |  |  |  |  | O=c1c2c(F)cccc2nc(CNc2ncnc3[nH]ccc23)n1-c1cccc(OCC(F)(F)F)c1 [Compound 21A, 2-(((7H-pyrrolo[2,3-d]pyrimidin-4-yl)amino)methyl)-5-fluoro-3-(3-(2,2,2-trifluoroethoxy)phenyl)quinazolin-4(3H)-one]
5800 nM | 50 nM | 1300 nM | 28000 nM |  |  |  |  | CC[C@H](Nc1ncnc2[nH]ccc12)c1nc2cccc(F)c2c(=O)n1-c1cccc(CC(F)(F)F)c1 [Compound 7A, (S)-2-(1-((7H-pyrrolo[2,3-d]pyrimidin-4-yl)amino)propyl)-5-fluoro-3-(3-(2,2,2-trifluoroethyl)phenyl)quinazolin-4(3H)-one]
7300 nM | 9 nM | 740 nM | 9700 nM |  |  |  |  | C[C@H](Nc1ncnc2[nH]ccc12)c1nc2cccc(F)c2c(=O)n1-c1ccc(OCC(F)(F)F)cc1 [Compound 15A, (S)-2-(1-((7H-pyrrolo[2,3-d]pyrimidin-4-yl)amino)ethyl)-5-fluoro-3-(4-(2,2,2-trifluoroethoxy)phenyl)quinazolin-4(3H)-one]
> 10000 nM | 190 nM | 4500 nM | > 10000 nM |  |  |  |  | C[C@H](Nc1ncnc2[nH]ccc12)c1nc2cccc(F)c2c(=O)n1-c1cccc(OCC(F)(F)C(F)(F)F)c1 [Compound 19A, (S)-2-(1-((7H-pyrrolo[2,3-d]pyrimidin-4-yl)amino)ethyl)-5-fluoro-3-(3-(2,2,3,3,3-pentafluoropropoxy)phenyl)quinazolin-4(3H)-one]
 | 110 nM | 3000 nM | 115000 nM |  |  |  |  | CC[C@H](Nc1ncnc2[nH]ccc12)c1nc2cccc(F)c2c(=O)n1-c1cccc(OCC(F)(F)F)c1 [Compound 11A, (S)-2-(1-((7H-pyrrolo[2,3-d]pyrimidin-4-yl)amino)propyl)-5-fluoro-3-(3-(2,2,2-trifluoroethoxy)phenyl)quinazolin-4(3H)-one]
 | 20 nM | 740 nM |  |  |  |  |  | CC[C@H](Nc1ncnc2[nH]cnc12)c1nc2cccc(F)c2c(=O)n1-c1cccc(OCC(F)(F)F)c1 [Compound 10A, (S)-2-(1-((9H-purin-6-yl)amino)propyl)-5-fluoro-3-(3-(2,2,2-trifluoroethoxy)phenyl)quinazolin-4(3H)-one]
3400 nM | 8 nM | 1200 nM | 10000 nM |  |  |  |  | C[C@H](Nc1ncnc2[nH]cc(F)c12)c1nc2cccc(F)c2c(=O)n1-c1cccc(OCC(F)(F)F)c1 [Compound 17A, (S)-5-fluoro-2-(1-((5-fluoro-7H-pyrrolo[2,3-d]pyrimidin-4-yl)amino)ethyl)-3-(3-(2,2,2-trifluoroethoxy)phenyl)quinazolin-4(3H)-one]
 |  |  |  | 1200 nM | 2100 nM | 20 nM | 9800 nM | C[C@H](Nc1ncnc2[nH]ccc12)c1nc2cccc(F)c2c(=O)n1-c1cccc(OCC(F)F)c1 [Compound 22A, (S)-2-(1-((7H-pyrrolo[2,3-d]pyrimidin-4-yl)amino)ethyl)-3-(3-(2,2-difluoroethoxy)phenyl)-5-fluoroquinazolin-4(3H)-one]
3100 nM | 20 nM | 300 nM | 15000 nM |  |  |  |  | CC[C@H](Nc1ncnc2[nH]cnc12)c1nc2cccc(F)c2c(=O)n1-c1cccc(CC(F)(F)F)c1 [Compound 6A, (S)-2-(1-((9H-purin-6-yl)amino)propyl)-5-fluoro-3-(3-(2,2,2-trifluoroethyl)phenyl)quinazolin-4(3H)-one]
1100 nM | 10 nM | 460 nM | 4100 nM |  |  |  |  | C[C@H](Nc1ncnc2[nH]ccc12)c1nc2cccc(Cl)c2c(=O)n1-c1cccc(OCC(F)(F)F)c1 [Compound 20A, (S)-2-(1-((7H-pyrrolo[2,3-d]pyrimidin-4-yl)amino)ethyl)-5-chloro-3-(3-(2,2,2-trifluoroethoxy)phenyl)quinazolin-4(3H)-one]
3900 nM | 80 nM | 1800 nM |  |  |  |  |  | O=c1c2c(F)cccc2nc([C@H](CC(F)(F)F)Nc2ncnc3[nH]cnc23)n1-c1ccccc1 [Compound 2A, (S)-2-(1-((9H-purin-6-yl)amino)-3,3,3-trifluoropropyl)-5-fluoro-3-phenylquinazolin-4(3H)-one]
10500 nM | 90 nM | 5400 nM |  |  |  |  |  | CC[C@H](Nc1ncnc2[nH]ccc12)c1nc2cccc(F)c2c(=O)n1-c1ccc(OCC(F)(F)F)cc1 [Compound 16A, (S)-2-(1-((7H-pyrrolo[2,3-d]pyrimidin-4-yl)amino)propyl)-5-fluoro-3-(4-(2,2,2-trifluoroethoxy)phenyl)quinazolin-4(3H)-one]
